Experimental data: patent US4902617A, “Enzyme and process for producing the same” (Hoffmann-La Roche Inc., priority 1986, dated 1990)
Values belong to the molecule of their own block, whether it stands above or below them.

Tests used:
[1] = target: T1, L-sorbosone dehydrogenase, purified from cytosol fraction of Gluconobacter oxydans UV-10 (FERM BP-1267) (Gluconobacter oxydans, UniProt Q47943); test: biochemical; conditions: pH 7, read-out: Relative Activity (%) in presence of substance
T1 sequence (Q47943 1-498): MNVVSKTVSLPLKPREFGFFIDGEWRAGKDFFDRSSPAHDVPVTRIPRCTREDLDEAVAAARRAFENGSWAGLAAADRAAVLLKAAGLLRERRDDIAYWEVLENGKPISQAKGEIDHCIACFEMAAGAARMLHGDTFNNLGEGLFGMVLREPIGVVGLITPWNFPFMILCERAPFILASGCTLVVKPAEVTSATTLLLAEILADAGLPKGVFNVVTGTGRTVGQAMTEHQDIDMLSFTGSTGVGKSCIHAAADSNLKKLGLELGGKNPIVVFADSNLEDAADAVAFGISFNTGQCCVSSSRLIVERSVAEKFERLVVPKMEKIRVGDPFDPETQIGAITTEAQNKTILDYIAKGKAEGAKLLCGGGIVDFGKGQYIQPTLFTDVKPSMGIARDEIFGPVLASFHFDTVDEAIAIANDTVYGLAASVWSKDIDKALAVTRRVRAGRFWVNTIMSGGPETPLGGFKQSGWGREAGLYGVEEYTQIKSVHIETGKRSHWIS

[2] = target: T1, L-sorbosone dehydrogenase, purified from cytosol fraction of Gluconobacter oxydans UV-10 (FERM BP-1267)

Structure (SMILES): O=C(O)CI [ICH2 COONa]
activity at 5000 µM [1]: 57.7%

activity at 5000 µM [1]: 119%
Structure (SMILES): O[C@H](CS)[C@H](O)CS (racemic) [Dithiothreitol]

Structure (SMILES): [N-]=[N+]=[N-].[Na+] [NaN3]
Relative Activity (%) in presence of substance ([2]; substance conc. 5 mM, None = 100, pH 7.0, 30° C.): 100%

Structure (SMILES): CCN1C(=O)C=CC1=O [N--Ethylmaleimide, N-Ethylmaleimide]
Effect on enzyme activity (in words) ([2]; summary of Table 8): inhibited the enzyme activity strongly
activity at 1000 µM [1]: 0%
